The record followed here is publication PMC9845330 (Communications Biology, 2023).

Experiment [1] deals with H1299 cells. The experiment in a line: Cell binding and internalization by flow cytometry, relative (normalized) uptake of peptide-streptavidin-phycoerythrin. The class given is cell-based, human. As for the experimental part: MGS4 was initially selected by phage display biopanning of a peptide library on live cells. […] As such, multivalent binding is often required. To ascertain whether multivalent binding is required for MGS4 internalization, monomeric (MGS4_V2) and tetrameric (MGS4_V1) peptides were synthesized and labeled as described (Supplementary Figure 1). After incubation of varying peptide concentrations on live cells, surface-bound peptide was removed by low pH washes, as well as trypsinization. Relative internalization was measured by flow cytometry to determine an EC50 value which represents the concentration of peptide producing half-maximal internalization. This measurement is dependent on the affinity of the peptide for its cellular target and the rate of internalization. This is a more accurate representation of the biological situation and useful in evaluating the peptides as drug delivery agents. As expected for receptor-mediated endocytosis, uptake of MGS4 is saturable with increasing concentration.
Fig. 1 Monomeric and tetrameric MGS4 have similar binding, internalization and subcellular location. a Binding and internalization of tetrameric MGS4_V1 and monomeric MGS4_V2 on live H1299 cells in culture. Cells were incubated with the peptide conjugated to streptavidin-phycoerythrin for 1 h at 37 °C. Non-internalized peptide was removed and the cells were analyzed by flow cytometry. b H1299 cells were incubated with MGS4_V1 or MGS4_V2 conjugated to streptavidin-Alexa Fluor 555 (red) for 1 h, washed, fixed and counterstained with WGA-Alexa Fluor 488 (green, cell membrane) and DAPI (blue, nuclei) and analyzed by fluorescence microscopy. The scale bar represents 20 µm. MGS4_V1 and MGS4_V2 internalize to a similar degree and localize to a similar destination. c Truncated monomeric MGS4 peptides have similar EC50 as the parental full-length peptide. Individual measurements are shown. The mean is shown as an “X” and black error bars represent standard error for a minimum of three experimental replicates (SEM). All original binding data and nonlinear regression analysis of the data are included in the supplementary materials.
Biotinylated peptide was conjugated to streptavidin-R-phycoerythrin or streptavidin-Alexa Fluor 647 (1:1 molar ratio) for 30 min. The open binding sites on streptavidin were quenched with RPMI 1640 and diluted to the indicated concentration. Tumor cells were grown to 90% confluency in a 12 well plate, then incubated with 500 µl peptide-dye conjugate at 37 °C. After 1 h, peptide was removed, and the cells were washed 3x with PBS (137 mM NaCl, 2.7 mM KCl, 10 mM Na2HPO4, 1.8 mM KH2PO4, pH 7.4), 2x with 0.1 M HCl-glycine pH2.2 in 0.9% NaCl, and 1x PBS rinse. Cells were removed by trypsinization. Flow cytometry was performed on a BD FACSCelesta, and data were analyzed on Flowing software. Cells were gated based on the forward and side scatter to include only viable cells and a minimum of 10,000 events were counted. A region containing <5% of the cells in the negative control was established, and relative peptide uptake by the mean fluorescence intensity of that population. For absolute peptide uptake per cell, a standard curve was generated using Quantum™ Alexa Fluor 647 microspheres (Bangs Laboratory, Fishers, IN). A representative linear regression showing the correlation of molecule equivalents soluble fluorophores (MESF) vs the mean fluorescence intensity (MFI) is shown in Supplemental Figure 6. Cells were gated based on the forward and side scatter to include only viable cells and a minimum of 10,000 events were counted. MFI was determined at 50% at peak height. Molecules internalized per cell were determined by the standard curve relating MESF to MFI and divided by the number dye molecules/MGS conjugate. An example is shown in supplemental Figure 7. GraphPad Prism® was used for non-linear regression curve fitting to calculate an EC50. […]
A general note: A flow cytometer gives signals particle by particle.

Experiment [2] concerns H1299 xenograft tumor. Briefly: Tumor homing by near infrared imaging. The class given is in vivo, mouse. The text has this:
Animal experiments were approved by SRI International’s Institutional Animal Care and Use committee (Animal Welfare Assurance Number A3025-01, protocol 14008). H2009 cells (10^6) or H1299 cells (10^6) were implanted subcutaneously on the flank of female Nu/Nu mice (Jackson Laboratory, Bar Harbor, ME). When tumors reached 100 mm^3, in vivo experiments were initiated. For imaging, the indicated peptides were conjugated directly to Alexa Fluor 750 near-infrared dye (Supplemental Fig. 1). Four animals per group were used. Peptides were injected into the lateral tail vein for a total dose 15 µgs/mouse delivered in 100 µL. At set period of times, animals were anesthetized and imaged on an IVIS® (Perkin Elmer). Regions of interest were drawn around the tumor and the total radiant efficiency was measured. For therapeutic experiments, we chose to use the H2009 tumor model as it has a higher tumor take rate and more consistent growth rate than the H1299 model. Biotinylated MGS4_V8 (N = 9) or MGS4_V6 (N = 8) were conjugated to streptavidin-saporin and administered via tail-vein injection (7.5 µg/100 µl) 2x/week for 2.5 weeks for a total of 5 treatments. Nontreated animals (N = 8) served as the control. Tumor size was measured with calipers every other day and volume was calculated as (π/6)(l*w)^3/2. Statistical analysis was performed on GraphPad Prism®.
Supplemental Figure 1. […]
-Qdot605, streptavidin-R- phycoerythrin, and streptavidin-saporin. b) For NIR imaging experiments, Alexa Fluor 750 was directly conjugated to the peptide by the reaction of maleimide modified dye with a thiol containing MGS4_V8 peptide. c ) The structure of the monomeric MGS4 used for serum stabilities. […]
Supplemental Figure 5. MGS4_V8 homes to H12 99 xenograft tumor after systemic delivery.
H1299 tumor bearing nude mice ( N=4 ) were injected I.V. with MGS4_V8 or MGS4_V6 conjugated to NIR dye Alexa Fluor 750. At 24, 48, and 72 hours post injection, mice were anesthetized and imaged on an IVIS® (Perkin E lme r ) to measure total radiant efficiency in each tumor. MGS4_V8 accumulates in tumor ≈3-fold better than control peptide, MGS4_V6. MGS4_V6 accumulation is statistically no different than […]
untreated tumo rs. […]
A standard curve was generated using Quantum ™ Alexa Fluor 647 microspheres (Bangs Laboratory, Fishers, IN). A representative linear regression showing the correlation of molecule equivalents soluble fluorophores (MESF) vs the mean fluorescence intensity (MFI) is shown. The MFI is determined at 50% […]
Supplemental Figure 7. Example of flow cytometry data: MGS4_V10 Uptake on H1993 Cells .
The gating strategy, cell population data , and MFI determination for an example binding experiment is shown. Cells were gated by forward and side scatter to exclude nonviable cells or cell clusters as shown.
Individual dot plots and histograms are shown for a concentration range of 0.1 nM – 50 nM. The MFI is determined at 50% peak height. Molecules internalized per cell were determined by the standard curve relating MESF to MFI and divided by the number dye molecules/MGS conjugate.

Non-standard residues stand in square brackets, D forms with d. Residues, ends and D or L forms follow the SMILES beside them. *: point of attachment. X1 = O=C(CCCC[C@@H]1SC[C@@H]2NC(=O)N[C@@H]21)NCCCOCCOCCOCCCN*; PEG12 = NCCOCCOCCOCCOCCOCCOCCOCCOCCOCCOCCOCCOCCC(=O)O

As to `CC(=O)N[C@@H](Cc1ccccc1)C(=O)N[C@@H](Cc1c[nH]cn1)C(=O)N[C@@H](C)C(=O)N[C@H](C(=O)N1CCC[C@H]1C(=O)N[C@@H](CCC(N)=O)C(=O)N[C@@H](CO)C(=O)N[C@@H](Cc1ccccc1)C(=O)N[C@@H](Cc1ccc(O)cc1)C(=O)N[C@H](C(=O)NCCOCCOCCOCCOCCOCCOCCOCCOCCOCCOCCOCCOCCC(=O)N[C@@H](CCC(=O)NCCCOCCOCCOCCCNC(=O)CCCC[C@@H]1SC[C@@H]2NC(=O)N[C@@H]21)C(N)=O)[C@@H](C)O)C(C)C` [MGS4_V8] (Ac-FHAVPQSFYT[PEG12]E(X1)-NH2), the “Bmax (best-fit)” value in experiment [1] (Supplementary Table 2, normalized binding) was 1.423. The “Total Radiant Efficiency” value in experiment [2] (24 h, Mouse 1) is reported as 1.32e+009; in experiment [2] (24 h, Mouse 2), 1.83e+009; in experiment [2] (24 h, Mouse 3), 9.57e+008; in experiment [2] (24 h, Mouse 4), 2.96e+009; in experiment [2] (48 h, Mouse 1), 9.13e+008; in experiment [2] (48 h, Mouse 2), 9.76e+008. Moreover, the “Total Radiant Efficiency” value in experiment [2] (48 h, Mouse 3) is listed as 7.72e+008; in experiment [2] (48 h, Mouse 4), 1.71e+009; in experiment [2] (72 h, Mouse 1), 9.42e+008; in experiment [2] (72 h, Mouse 2), 7.37e+008; in experiment [2] (72 h, Mouse 3), 1.06e+009; in experiment [2] (72 h, Mouse 4), 1.35e+009. In addition, the “fold tumor accumulation versus control peptide MGS4_V6” value in experiment [2] (H1299 tumors, 24-72 h, Alexa Fluor 750 conjugate, N=4) was “≈ 3 fold”.

For *HAVPQSFYT** [MGS4_V6], in experiment [1] (H1299 cells, 1 h at 37 °C, normalized uptake, one-site specific binding fit, Average ± SEM, minimum 3 replicates), the “EC50 (nM)” value was “Not Detected^2”. Moreover, the “Total Radiant Efficiency” value was 7.74e+008 in experiment [2] (24 h, Mouse 1); 4.6e+008 in experiment [2] (24 h, Mouse 2); 7.58e+008 in experiment [2] (24 h, Mouse 3); 3.13e+008 in experiment [2] (24 h, Mouse 4); 5.44e+008 in experiment [2] (48 h, Mouse 1); 3.19e+008 in experiment [2] (48 h, Mouse 2). Also, the “Total Radiant Efficiency” value was 3.39e+008 in experiment [2] (48 h, Mouse 3); 3.19e+008 in experiment [2] (48 h, Mouse 4); 5.46e+008 in experiment [2] (72 h, Mouse 1); 3.28e+008 in experiment [2] (72 h, Mouse 2); 3.61e+008 in experiment [2] (72 h, Mouse 3); 4.28e+008 in experiment [2] (72 h, Mouse 4).
